Experimental data from patent publication US20120087914A1, “INHIBITION OF TRIM62 ACTIVITY REDUCES CANCER CELL PROLIFERATION” (Fred Hutchinson Cancer Research Center, priority 2008, published 2012).

Columns and labels:
Assay type in all cases: cell-based, human
[1] = tested on: p27^Kip1 protein levels in UACC893 cells; assay: p27^Kip1 Western blot in UACC893 cells with lapatinib and/or TRIM62 siRNA; conditions: UACC893 cells (amplified ErbB2), 0.5 μM lapatinib, siRNA from expression vector, FIG. 7
Protocol: A breast cancer cell line with an amplified ErbB2 gene (UACC893) was transfected with a TRIM62 siRNA expression vector or a vector that expressed a control siRNA. p27^Kip1 levels were assayed by Western blotting using a p27^Kip1 specific antibody. After treatment of the control-transfected cells with 0.5 μM lapatinib, p27^Kip1 levels increased as compared to the untreated cells. Cells transfected with the TRIM62 siRNA also had increased p27^Kip1 levels.
p27^Kip1 protein levels were measured in breast cancer cells with ErbB2 gene amplification after administration of an ErbB2 specific mall organic molecule, lapatinib. p27^Kip1 expression levels were higher after lapatinib was administered. […] The increased levels of p27^Kip1 expression coincided with increased nuclear localization of p27^Kip1. Data not shown.

[2] = tested on: p27^Kip1 protein levels in UACC893 cells transfected with a TRIM62 expression vector; assay: p27^Kip1 Western blot in UACC893 cells overexpressing TRIM62, treated with lapatinib; conditions: UACC893 cells overexpressing TRIM62, 0.5 μM lapatinib, FIG. 8
Protocol: A breast cancer cell line with an amplified ErbB2 gene (UACC893) was transfected with a TRIM62 expression vector or an empty vector. p27^Kip1 levels were assayed by Western blotting using a p27^Kip1 specific antibody. Cells were treated with 0.5 μM lapatinib or buffer.
The effect of overexpression of TRIM62 protein on p27^Kip1 expression was determined in breast cancer cells with ErbB2 gene amplification. […] A breast cancer cell line with an amplified ErbB2 gene (UACC893) was transfected with a TRIM62 expression vector or an empty vector. p27^Kip1 levels were assayed by Western blotting using a p27^Kip1 specific antibody. Cells were treated with 0.5 μM lapatinib or buffer. As compared to an empty vector control, cells that overexpressed TRIM62 had low levels of p27^Kip1 protein expression.

MCF10A cells = assay: EdU incorporation by flow cytometry in MCF10A cells; conditions: 15 nM siRNA, 48 hours posttransfection, 1.5 hours EdU, control SiRNA 29.5%
Protocol: (§1) 4×10^5 MCF10A cells (immortalized, non-transformed epithelial cells derived from human fibrocystic mammary tissue; ATCC CRL-10217) or BT474 cells (Her2^+ human breast cancer cell line) were seeded in growth media (DMEM/F12 (Gibco), 5% horse serum (Invitrogen), […] (Peprotech), 1 mg/ml hydrocortisone (Sigma), […] cholera toxin (Sigma), […] (Sigma), and Pen/Strep (Invitrogen)). After 24 hours, media was changed to antibiotic-free growth medium, and lipofectamine 2000 was used to cotransfect MCF10A cells with either 15 nM Trim62SiRNA (SEQ ID NO: 9; 5′ AAGAAGCAGAGAAGCGCGC-3″ (Integrated DNA Technologies)) and 15 nM siGlow (non-targeting control siRNA labeled with Cy3 (Thermo Scientific)), or 15 nM Trim62scrambled siRNA (SEQ ID NO:10; 5′ GCGAGGACGGACAAA CAGA 3′ (Sigma)) and 15 nM siGlow; for BT474 cells 25 nM siRNA was used. 6 hours post transfection, media was replaced with growth media containing antibiotics, and 48 hours postransfection, MCF10A cell were incubated for 1.5 hours with […] (5-ethynyl-2′-deoxyuridine, an analog of BrdU); for BT474 cells incubation with EdU was for 12 hours. Cells were trypsinized, washed with PBS-1% FBS, and sorted for Cy3 transfection marker using a cell sorter (BD FACSArisII cell sorter). […] The data was collected using a BD FACS Diva software package and analyzed using BD CellQuest Pro Software. […]

BT474 cells = assay: EdU incorporation by flow cytometry in BT474 cells; conditions: 25 nM siRNA, 12 hours EdU, Control siRNA 17.5%
Protocol: as §1

MCA10F cells = assay: Cell cycle distribution of exponentially growing MCA10F cells (FIG. 9); conditions: sorted on siGLO-FITC
Protocol: FIG. 9 provides an assessment of TRIM62siRNA on the cell cycle of MCA10F exponentially growing cells. The cells were sorted on siGLO-FITC.
as §1, with “hours.” for “hours. Cells were trypsinized, washed with PBS-1% FBS, and sorted for Cy3 transfection marker using a cell sorter (BD FACSArisII cell sorter).”

| Compound | p27^Kip1 protein expression levels [1] | expression of p27^Kip1 protein [2] | EdU^+ cells (MCF10A cells) [%] | EdU^+ cells (BT474 cells) [%] | percentage of cells that remain in G1 (MCA10F cells) |
| --- | --- | --- | --- | --- | --- |
| CS(=O)(=O)CCNCc1ccc(-c2ccc3ncnc(Nc4ccc(OCc5cccc(F)c5)c(Cl)c4)c3c2)o1 [lapatinib] | higher | did not result in increased expression |  |  |  |
| 5′ AAGAAGCAGAGAAGCGCGC-3″ [T62siRNA] |  |  | 11.1 | 9 | higher percentage |
